In ChEMBL document CHEMBL4627350, “Drug repurposing and rediscovery: Design, synthesis and preliminary biological evaluation of 1-arylamino-3-aryloxypropan-2-ols as anti-melanoma agents” (Bioorg Med Chem, 2020):
Activity calls are given as the source filed them. The calls are words filed in the database; no cut-off is given here.

Experiments:
[1] = system: SK-MEL-5; test: Antiproliferative activity against human SK-MEL-5 cells assessed as cell growth inhibition incubated for 48 hrs by MTT assay; assay type: functional, cell-based; conditions: SK-MEL-5, 48 h
[2] = system: SK-MEL-28; test: Antiproliferative activity against human SK-MEL-28 cells assessed as cell growth inhibition incubated for 48 hrs by MTT assay; assay type: functional, cell-based; conditions: SK-MEL-28, 48 h
[3] = system: A-375; test: Antiproliferative activity against human A375 cells assessed as cell growth inhibition incubated for 48 hrs by MTT assay; assay type: functional, cell-based; conditions: A-375, 48 h
[4] = system: SK-MEL-5; test: Antiproliferative activity against human SK-MEL-5 cells assessed as cell growth inhibition at 100 uM incubated for 48 hrs by MTT assay relative to control; assay type: functional; conditions: SK-MEL-5, 48 h
[5] = system: SK-MEL-28; test: Antiproliferative activity against human SK-MEL-28 cells assessed as cell growth inhibition at 100 uM measured after 48 hrs by MTT assay relative to control; assay type: functional; conditions: SK-MEL-28, 48 h
[6] = system: A-375; test: Antiproliferative activity against human A375 cells assessed as cell growth inhibition at 100 uM measured after 48 hrs by MTT assay relative to control; assay type: functional; conditions: A-375, 48 h
[7] = system: SK-MEL-28; test: Cell cycle arrest in human SK-MEL-28 cells assessed as accumulation at G2/M phase after 24 hrs by […] dye staining based fluorescence assay; assay type: functional
[8] = system: SK-MEL-28; test: Inhibition of colony formation in human SK-MEL-28 cells at 2 uM supplemented with fresh medium containing compound every 72 hrs for 2 weeks by crystal violet staining based assay; assay type: functional
[9] = system: SK-MEL-28; test: Antimigratory activity against human SK-MEL-28 cells assessed as reduction in cell migration at 1 uM measured after 48 hrs by wound healing assay; assay type: functional, cell-based
[10] = system: SK-MEL-28; test: Induction of apoptosis in human SK-MEL-28 cells incubated for 24 hrs by Annexin V-FITC/propidium iodide staining based flow cytometric analysis; assay type: functional, cell-based
[11] = target: Tubulin (Homo sapiens) (UniProt P68371+Q9H4B7+P0DPH7+P68366+Q13509+Q71U36+P04350+Q3ZCM7+P07437+P68363+Q9BQE3+Q6PEY2+Q13885+Q9BVA1+Q9BUF5); test: Inhibition of tubulin in human SK-MEL-28 cells assessed as disruption of microtubule network at 1 to 2 uM by Alexa Fluor 488 and DAPI staining based fluorescence microscopic method; assay type: cell-based
[12] = system: SK-MEL-5; test: Potency index, ratio of carvedilol IC50 to test compound IC50 for antiproliferative activity against human SK-MEL-5 cells; assay type: functional
[13] = system: SK-MEL-28; test: Potency index, ratio of carvedilol IC50 to test compound IC50 for antiproliferative activity against human SK-MEL-28 cells; assay type: functional
[14] = system: A-375; test: Potency index, ratio of carvedilol IC50 to test compound IC50 for antiproliferative activity against human A375 cells; assay type: functional
[15] = system: SK-MEL-28; test: Inhibition of colony formation in human SK-MEL-28 cells at 5 to 100 uM supplemented with fresh medium containing compound every 72 hrs for 2 weeks by crystal violet staining based assay; assay type: functional, cell-based
[16] = system: SK-MEL-28; test: Cell cycle arrest in human SK-MEL-28 cells assessed as accumulation at G2/M phase at 5 nM after 24 hrs by […] dye staining based fluorescence assay; assay type: functional

Row | Compound | IC50 [1] [µM] | IC50 [2] [µM] | IC50 [3] [µM] | also measured
1 | c1ccc(N2CCN(CCCOc3cccc4[nH]c5ccccc5c34)CC2)nc1 | 11.5 | 15.5 | 13.9 | –
2 | COc1ccccc1OCCNCCCOc1cccc2[nH]c3ccccc3c12 | 6.18 | 6.66 | 6.88 | –
3 | COCCc1ccc(OCC(O)CNC(C)C)cc1 (stereo unspecified) [METOPROLOL] | > 100 | > 100 | > 100 | inhibition at 100 µM [4]: 38.8%; inhibition at 100 µM [5]: 30%; inhibition at 100 µM [6]: 26.3%
4 | O[C@@H](CNCc1ccc(-c2ccccc2)cc1)COc1cccc2[nH]c3ccccc3c12 | 2.69 | 4.99 | 5.22 | –
5 | CC(C)NCC(O)c1ccc(NS(C)(=O)=O)cc1 (stereo unspecified) [SOTALOL] | > 100 | > 100 | > 100 | inhibition at 100 µM [4]: 2.1%; inhibition at 100 µM [5]: 7.4%; inhibition at 100 µM [6]: 15.2%
6 | OC(CNCc1ccc(-c2ccccc2)cc1)COc1cccc(Nc2ccccc2)c1 (racemic) | 3.7 | 3.3 | 1.98 | Activity [7]: Dose-dependent effect; inhibition (INH) [8]: 100%; Activity [9]: Active; Activity [10]: Dose-dependent effect; inhibition [11]: Active
7 | Cc1ccc2cccc(NCC(O)COc3cccc4[nH]c5ccccc5c34)c2n1 (racemic) | 14.5 | 14.2 | 14.1 | –
8 | COc1ccccc1OCCNCC(O)COc1ccc(-c2ccccc2)cc1 (racemic) | 5.86 | 6.01 | 8.37 | –
9 | OC(CNCc1ccc(-c2ccccc2)cc1)COc1cccc2[nH]c3ccccc3c12 (racemic) | 3.14 | 3.8 | 5.56 | Activity [9]: Active; Ratio IC50 [12]: 15; Ratio IC50 [13]: 15; Ratio IC50 [14]: 15
10 | CC(CCc1ccccc1)NCC(O)c1ccc(O)c(C(N)=O)c1 (stereo unspecified) [LABETALOL] | > 100 | > 100 | > 100 | inhibition at 100 µM [4]: 36.2%; inhibition at 100 µM [5]: 35.6%; inhibition at 100 µM [6]: 38.1%
11 | CC(C)NCC(O)COc1cccc2ccccc12 (stereo unspecified) | – | – | – | inhibition [15]: Active
12 | OC(CNc1ccc(-c2ccccc2)cc1)COc1cccc2[nH]c3ccccc3c12 (racemic) | 13.9 | 12.5 | 13.5 | –
13 | COc1cc2c(c(OC)c1OC)-c1ccc(OC)c(=O)cc1[C@@H](NC(C)=O)CC2 | – | – | – | Activity [16]: Active
14 | OC(COc1cccc2[nH]c3ccccc3c12)CN1CCN(c2ccccc2)CC1 (racemic) | 17 | 18.5 | 16.3 | –
15 | OC(COc1ccc(-c2ccccc2)cc1)CN1CCN(c2ccccc2)CC1 (racemic) | 12.2 | 15.3 | 14.3 | –
16 | COc1ccccc1OCCNC[C@H](O)COc1cccc2[nH]c3ccccc3c12 | 7.04 | 10.5 | 14.7 | –
17 | OC(COc1ccc(-c2ccccc2)cc1)CN1CCN(c2ccccn2)CC1 (racemic) | 21.2 | 25 | 28.2 | –

Row | Compound | IC50 [1] [µM] | IC50 [2] [µM] | IC50 [3] [µM] | also measured
18 | CC(C)NCC(O)COc1ccc(COCCOC(C)C)cc1 (stereo unspecified) [BISOPROLOL] | > 100 | > 100 | > 100 | inhibition at 100 µM [4]: 14.8%; inhibition at 100 µM [5]: 6.4%; inhibition at 100 µM [6]: 28.3%
19 | COc1ccccc1OCCNCC(O)COc1ccc2ccccc2c1 (racemic) | 18.5 | 19.7 | 21.1 | –
20 | COc1ccccc1N1CCN(CC(O)COc2cccc3[nH]c4ccccc4c23)CC1 (racemic) | 13.6 | 14.1 | 13.9 | –
21 | CC(C)(C)NC[C@H](O)COc1nsnc1N1CCOCC1 [TIMOLOL] | > 100 | > 100 | > 100 | inhibition at 100 µM [4]: 33.3%; inhibition at 100 µM [5]: 18.6%; inhibition at 100 µM [6]: 22.7%
22 | Cc1ccc2cccc(NCCCOc3cccc4[nH]c5ccccc5c34)c2n1 | 16.4 | 19.8 | 22.3 | –
23 | OC(COc1cccc2[nH]c3ccccc3c12)CN1CCN(c2ccccn2)CC1 (racemic) | 26.1 | 24.7 | 31.8 | –
24 | COc1ccccc1OCCNCC(O)COc1cccc2ccccc12 (racemic) | 10.1 | 13.5 | 18.9 | –
25 | CC(C)NCC(O)COc1cccc2[nH]c3ccccc3c12 (stereo unspecified) [CARAZOLOL] | 33.7 | 31.3 | 35.4 | –
26 | COc1ccccc1OCCNCC(O)COc1cccc2[nH]c3ccccc3c12 (stereo unspecified) [CARVEDILOL] | 13.7 | 15.6 | 13 | inhibition [15]: Active
27 | CC(C)NCC(O)COc1ccc(-c2ccccc2)cc1 (racemic) | 12 | 11.9 | 11 | –
28 | c1ccc(-c2ccc(CNCCCOc3cccc4[nH]c5ccccc5c34)cc2)cc1 | 4.28 | 4.39 | 6.59 | –
29 | COC(=O)CCc1ccc(OCC(O)CNC(C)C)cc1 (stereo unspecified) [ESMOLOL] | > 100 | > 100 | > 100 | inhibition at 100 µM [4]: 31.4%; inhibition at 100 µM [5]: 25.8%; inhibition at 100 µM [6]: 22.8%
30 | c1ccc(Nc2cccc(OCCCNCc3ccc(-c4ccccc4)cc3)c2)cc1 | 4.72 | 3.8 | 2.31 | –
31 | COc1ccccc1N1CCN(CCCOc2cccc3[nH]c4ccccc4c23)CC1 | 13.7 | 11.4 | 10.8 | –
32 | c1ccc(N2CCN(CCCOc3cccc4[nH]c5ccccc5c34)CC2)cc1 | 36.9 | 19.2 | 22.6 | –
33 | CC(C)NCC(O)COc1ccc(CC(N)=O)cc1 (stereo unspecified) [ATENOLOL] | > 100 | > 100 | > 100 | inhibition at 100 µM [4]: 5.2%; inhibition at 100 µM [5]: 6.9%; inhibition at 100 µM [6]: 8.6%
